The subject of the assay is BRCA-1 silenced HeLa cells (HeLa shBRCA1-GFP). Nature of the assay: Proliferation assay in BRCA-1 silenced HeLa cells. The assay is classed as cell-based. The following applies: Homo sapiens; BRCA1 silenced HeLa cells, 168 hours; read-out: CC50 in the BRCA1 silenced HeLa cells. The method, then:
Proliferation Assay in BRCA-1 Silenced HeLa Cells
Compounds of the present invention were also tested in an anti-proliferative assay in matched pair BRCA1 wt and BRCA1-(shRNA) HeLa cells.
The assay is based on the ability of living cells to convert a redox dye (resazurin) into a fluorescent end product (resofurin). The amount of resofurin produced is directly proportional to the cell number.
HeLa shBRCA1-GFP—These are HeLa cells transduced at an MOI of 100 with a Lentivirus containing a shRNA against BRCA-1 and an expression cassette for GFP. BRCA-1 silencing is more than 80% as assessed by Taqman analysis and the cells stably express GFP.
HeLa THM-GFP—These are HeLa cells transduced at an MOI of 100 with a control vector not expressing any shRNA.
• Seed 300 cell/well in 96 wells viewplate black in 90 ul culture Medium*: • Incubate 4 hours at 37° C., 5% CO2 • Add 10 ul/well of 10× compound (5% DMSO in H2O) • Incubate for 168 hours at 37° C., 5% CO2 • Add 10 ul of Celltiter Blue solution (Promega, G8081) pre-diluted 1:1 in PBS1× • Incubate the mixture for 45′ at 37° C., 5% CO2 • Incubate 15′ at RT in the dark • Read plate at fluorimeter ex: 550 nm; em: 590 nm *Culture Medium: DMEM (GIBCO, 41966-029), 10% FCS (GIBCO, 10106-169), 0.1 mg/ml Penicillin-Streptomycin (GIBCO, 15140-114), 2 mM L-Glutamine (GIBCO, 3042190)

Structures can show the parent of a compound that is named as a salt.

The CC50 is the concentration at which the toxic effect on the cells reaches its halfway point. For `Cc1c(Cc2ccc(F)c(C(=O)N3CC(=O)N4[C@@H](CCC[C@H]4C)C3)c2)n[nH]c(=O)c1C` (racemic) [Example 85, 6-{4-Fluoro-3-[(cis-6-methyl-4-oxooctahydro-2H-pyrido[1,2-a]pyrazin-2-yl)carbonyl]benzyl}-4,5-dimethyl-3-oxo-2,3-dihydropyridazin-1-ium trifluoroacetate], the CC50 is under 0.05 µM.

Take `Cc1c(Cc2ccc(F)c(C(=O)N3CC(=O)N([C@H]4CCOC4)[C@H](C)C3)c2)n[nH]c(=O)c1C` (single isomer, unassigned) [75 (II4A)]: the CC50 was 0.05 to 0.5 µM.

Regarding `Cc1c(Cc2ccc(F)c(C(=O)N3CC(=O)N([C@H]4CCOC4)[C@@H](C)C3)c2)n[nH]c(=O)c1C` (single isomer, unassigned) [75 (II4B)], the CC50 was under 0.05 µM.

In the case of `Cc1c(Cc2ccc(F)c(C(=O)N3CC(=O)N4[C@@H](CCC[C@@H]4C)C3)c2)n[nH]c(=O)c1C` (single isomer, unassigned) [86 (TT1)], the CC50 was under 0.05 µM.

As to `Cc1c(Cc2ccc(F)c(C(=O)N3CC(=O)N4[C@H](CCC[C@H]4C)C3)c2)n[nH]c(=O)c1C` (single isomer, unassigned) [86 (TT2)], the CC50 was in the range of 0.05 to 0.5 µM.

In the case of `C[C@H]1CCC[C@H]2CN(C(=O)c3cc(Cc4cc(C(F)(F)F)c(=O)[nH]n4)ccc3F)CC(=O)N21` (single isomer, unassigned) [88 (VV1)], the CC50 was under 0.05 µM.

As to `C[C@@H]1CCC[C@@H]2CN(C(=O)c3cc(Cc4cc(C(F)(F)F)c(=O)[nH]n4)ccc3F)CC(=O)N21` (single isomer, unassigned) [88 (VV2)], the CC50 is 0.05 to 0.5 µM.

With `Cc1c(Cc2ccc(F)c(C(=O)N3CCN(c4ccccc4)C(=O)C3)c2)n[nH]c(=O)c1C` [Example 1, 6-{4-Fluoro-3-[(3-oxo-4-phenylpiperazin-1-yl)carbonyl]benzyl}-4,5-dimethyl-3-oxo-2,3-dihydropyridazin-1-ium trifluoroacetate], the CC50 was under 0.05 µM.

Turning to `Cc1c(Cc2ccc(F)c(C(=O)N3CCN(C4CCCCC4)C(=O)C3)c2)n[nH]c(=O)c1C` [Example 2, 6-{3-[(4-Cyclohexyl-3-oxopiperazin-1-yl)carbonyl]-4-fluorobenzyl}-4,5-dimethyl-3-oxo-2,3-dihydropyridazin-1-ium trifluoroacetate], the CC50 was under 0.05 µM.

For `Cc1c(Cc2ccc(F)c(C(=O)N3CCN(C4CCCC4)C(=O)C3)c2)n[nH]c(=O)c1C` [Example 3, 6-{3-[(4-Cyclopentyl-3-oxopiperazin-1-yl)carbonyl]-4-fluorobenzyl}-4,5-dimethylpyridazin-3(2H)-one], the CC50 is under 0.05 µM.

Regarding `CCc1cc(Cc2ccc(F)c(C(=O)N3CCN(c4ccccc4)C(=O)C3)c2)n[nH]c1=O` [Example 5, 4-Ethyl-6-{4-fluoro-3-[(3-oxo-4-phenylpiperazin-1-yl)carbonyl]benzyl}pyridazin-3(2H)-one trifluoroacetate], the CC50 fell in the range of 0.05 to 0.5 µM.

`CCc1cc(Cc2ccc(F)c(C(=O)N3CCN(C4CCCCC4)C(=O)C3)c2)n[nH]c1=O` [Example 6, 6-{3-[(4-Cyclohexyl-3-oxopiperazin-1-yl)carbonyl]-4-fluorobenzyl}-4-ethylpyridazin-3(2H)-one trifluoroacetate]: the CC50 was 0.05 to 0.5 µM.

As for `Cc1c(Cc2ccc(F)c(C(=O)N3CCN(Cc4ccc(F)cc4)C(=O)C3)c2)n[nH]c(=O)c1C` [Example 8, 3-(4-Fluoro-3-{[4-(4-fluorobenzyl)-3-oxopiperazin-1-yl]carbonyl}benzyl)-4,5-dimethyl-6-oxo-1,6-dihydropyridazin-1-ium trifluoroacetate], the CC50 is under 5 µM.

As for `Cc1c(Cc2ccc(F)c(C(=O)N3CCN(c4cccc(Cl)c4)C(=O)C3)c2)n[nH]c(=O)c1C` [Example 9, 6-(3-{[4-(3-Chlorophenyl)-3-oxopiperazin-1-yl]carbonyl}-4-fluorobenzyl)-4,5-dimethyl-3-oxo-2,3-dihydropyridazin-1-ium trifluoroacetate], the CC50 was under 0.05 µM.

In the case of `Cc1c(Cc2ccc(F)c(C(=O)N3CCN(c4ccc(F)c(Cl)c4)C(=O)C3)c2)n[nH]c(=O)c1C` [Example 10, 6-(3-{[4-(3-Chloro-4-fluorophenyl)-3-oxopiperazin-1-yl]carbonyl}-4-fluorobenzyl)-4,5-dimethyl-3-oxo-2,3-dihydropyridazin-1-ium trifluoroacetate], the CC50 is under 0.05 µM.

Regarding `Cc1c(Cc2ccc(F)c(C(=O)N3CCN(c4ccc(F)c(F)c4)C(=O)C3)c2)n[nH]c(=O)c1C` [Example 11, 6-(3-{[4-(3,4-Difluorophenyl)-3-oxopiperazin-1-yl]carbonyl}-4-fluorobenzyl)-4,5-dimethyl-3-oxo-2,3-dihydropyridazin-1-ium trifluoroacetate], the CC50 is under 0.05 µM.

Regarding `Cc1c(Cc2ccc(F)c(C(=O)N3CCN(c4cc(F)cc(F)c4)C(=O)C3)c2)n[nH]c(=O)c1C` [Example 12, 6-(3-{[4-(3,5-Difluorophenyl)-3-oxopiperazin-1-yl]carbonyl}-4-fluorobenzyl)-4,5-dimethyl-3-oxo-2,3-dihydropyridazin-1-ium trifluoroacetate], the CC50 is under 0.05 µM.

As to `Cc1c(Cc2ccc(F)c(C(=O)N3CCN(c4ccc(Cl)cc4)C(=O)C3)c2)n[nH]c(=O)c1C` [Example 13, 6-(3-{[4-(4-Chlorophenyl)-3-oxopiperazin-1-yl]carbonyl}-4-fluorobenzyl)-4,5-dimethyl-3-oxo-2,3-dihydropyridazin-1-ium trifluoroacetate], the CC50 is under 0.05 µM.

With `Cc1c(Cc2ccc(F)c(C(=O)N3CCN(c4ccccc4Cl)C(=O)C3)c2)n[nH]c(=O)c1C` [Example 14, 6-(3-{[4-(2-Chlorophenyl)-3-oxopiperazin-1-yl]carbonyl}-4-fluorobenzyl)-4,5-dimethyl-3-oxo-2,3-dihydropyridazin-1-ium trifluoroacetate], the CC50 was 0.05 to 0.5 µM.

Consider `Cc1c(Cc2ccc(F)c(C(=O)N3CCN(c4ccccc4C(F)(F)F)C(=O)C3)c2)n[nH]c(=O)c1C` [Example 15, 6-[4-Fluoro-3-({3-oxo-4-[2-(trifluoromethyl)phenyl]piperazin-1-yl}carbonyl)benzyl]-4,5-dimethyl-3-oxo-2,3-dihydropyridazin-1-ium trifluoroacetate], for which the CC50 was under 0.05 µM.

Turning to `Cc1c(Cc2ccc(F)c(C(=O)N3CCN(c4ccc(F)cc4Cl)C(=O)C3)c2)n[nH]c(=O)c1C` [Example 16, 6-(3-{[4-(2-Chloro-4-fluorophenyl)-3-oxopiperazin-1-yl]carbonyl}-4-fluorobenzyl)-4,5-dimethyl-3-oxo-2,3-dihydropyridazin-1-ium trifluoroacetate], the CC50 is 0.05 to 0.5 µM.

Take `CCN1CCN(C(=O)c2cc(Cc3n[nH]c(=O)c(C)c3C)ccc2F)CC1=O` [Example 17, 6-{3-[(4-Ethyl-3-oxopiperazin-1-yl)carbonyl]-4-fluorobenzyl}-4,5-dimethylpyridazin-3(2H)-one trifluoroacetate]: the CC50 lay in the range of 0.05 to 0.5 µM.

Turning to `CCCCN1CCN(C(=O)c2cc(Cc3n[nH]c(=O)c(C)c3C)ccc2F)CC1=O` [Example 18, 6-{3-[(4-Butyl-3-oxopiperazin-1-yl)carbonyl]-4-fluorobenzyl}-4,5-dimethylpyridazin-3(2H)-one trifluoroacetate], the CC50 was in the range of 0.05 to 0.5 µM.

Take `Cc1cc(C)cc(CN2CCN(C(=O)c3cc(Cc4n[nH]c(=O)c(C)c4C)ccc3F)CC2=O)c1` [Example 19, 6-(3-{[4-(3,5-Dimethylbenzyl)-3-oxopiperazin-1-yl]carbonyl}-4-fluorobenzyl)-4,5-dimethylpyridazin-3(2H)-one trifluoroacetate]: the CC50 lay in the range of 0.05 to 0.5 µM.

As to `COc1ccc(CN2CCN(C(=O)c3cc(Cc4n[nH]c(=O)c(C)c4C)ccc3F)CC2=O)cc1` [Example 20, 6-(4-Fluoro-3-{[4-(4-methoxybenzyl)-3-oxopiperazin-1-yl]carbonyl}benzyl)-4,5-dimethylpyridazin-3(2H)-one trifluoroacetate], the CC50 lay within 0.05 to 0.5 µM.

As to `Cc1c(Cc2ccc(F)c(C(=O)N3CCN(CCc4ccccc4)C(=O)C3)c2)n[nH]c(=O)c1C` [Example 21, 6-(4-Fluoro-3-{[3-oxo-4-(2-phenylethyl)piperazin-1-yl]carbonyl}benzyl)-4,5-dimethylpyridazin-3(2H)-one trifluoroacetate], the CC50 was 0.05 to 0.5 µM.

`COc1cccc(N2CCN(C(=O)c3cc(Cc4n[nH]c(=O)c(C)c4C)ccc3F)CC2=O)c1` [Example 22, 6-(4-Fluoro-3-{[4-(3-methoxyphenyl)-3-oxopiperazin-1-yl]carbonyl}benzyl)-4,5-dimethylpyridazin-3(2H)-one trifluoroacetate]: the CC50 is 0.05 to 0.5 µM.

With `Cc1cc(C)cc(N2CCN(C(=O)c3cc(Cc4n[nH]c(=O)c(C)c4C)ccc3F)CC2=O)c1` [Example 23, 6-(3-{[4-(3,5-Dimethylphenyl)-3-oxopiperazin-1-yl]carbonyl}-4-fluorobenzyl)-4,5-dimethylpyridazin-3(2H)-one trifluoroacetate], the CC50 is 0.05 to 0.5 µM.

The values are drawn from patent US8268827B2, “Pyridazinone derivatives as PARP inhibitors” (Istituto di Ricerche di Biologia Molecolare P. Angeletti …, priority 2007, dated 2012).
